Test results reported in the NIST ThermoML archive (doi:10.1016/j.fluid.2016.08.035).
± gives the expanded uncertainty stated by the source.

Experiments:
[1] = xn = mol fraction of the nth substance listed; settings: 101 kPa, Liquid; for viscosity: Falling or rolling sphere viscometry; for speed of sound: Sing-around technique in a fixed-path interferometer; for mass density: Vibrating tube method
[2] = molar heat capacity at constant pressure; xn = mol fraction of the nth substance listed; settings: 101 kPa, Liquid, DSC

CC12CCC(CC1)C(C)(C)O2 [1,3,3-trimethyl-2-oxabicyclo[2.2.2]octane] + CCCCCC
Settings	mass density, [1] [kg/m3]	molar heat capacity at constant pressure, [2] [J/K/mol]	speed of sound, [1] [m/s]	viscosity, [1] [mPa·s]
278.15 K, x1 = 0.1043	708.22 ± 0.25	194.63 ± 7.5	1188.8 ± 1.5	0.47 ± 0.04
278.15 K, x1 = 0.2069	740.59 ± 0.25	200.97 ± 7.8	1208.4 ± 1.5	0.57 ± 0.04
278.15 K, x1 = 0.2965	767.3 ± 0.25	206.77 ± 8	1225.8 ± 1.5	0.68 ± 0.04
278.15 K, x1 = 0.4005	796.7 ± 0.24	213.53 ± 8.3	1246.1 ± 1.5	0.83 ± 0.04
278.15 K, x1 = 0.4991	823.02 ± 0.24	220.18 ± 8.5	1265.3 ± 1.5	1.03 ± 0.04
278.15 K, x1 = 0.5999	848.56 ± 0.24	227.2 ± 8.8	1284.8 ± 1.5	1.28 ± 0.04
278.15 K, x1 = 0.6995	872.46 ± 0.24	234.25 ± 9.1	1304 ± 1.5	1.66 ± 0.04
278.15 K, x1 = 0.8005	895.28 ± 0.23	241.41 ± 9.3	1322.8 ± 1.5	2.19 ± 0.04
278.15 K, x1 = 0.8985	916.39 ± 0.23	248.64 ± 9.6	1341 ± 1.5	2.93 ± 0.05
278.15 K, x1 = 1	937.25 ± 0.23	256.14 ± 9.9	1359.6 ± 1.6	4.21 ± 0.05
298.15 K, x1 = 0.1043	690.43 ± 0.25	201.78 ± 7.8	1099.9 ± 1.5	0.39 ± 0.04
298.15 K, x1 = 0.2069	722.9 ± 0.25	208.67 ± 8.1	1121.2 ± 1.5	0.46 ± 0.04
298.15 K, x1 = 0.2965	749.7 ± 0.25	214.95 ± 8.3	1139.8 ± 1.5	0.53 ± 0.04
298.15 K, x1 = 0.4005	779.19 ± 0.24	222.29 ± 8.6	1161.4 ± 1.5	0.64 ± 0.04
298.15 K, x1 = 0.4991	805.59 ± 0.24	229.41 ± 8.9	1181.5 ± 1.5	0.77 ± 0.04
298.15 K, x1 = 0.5999	831.19 ± 0.24	236.9 ± 9.2	1201.8 ± 1.5	0.93 ± 0.04
298.15 K, x1 = 0.6995	855.13 ± 0.24	244.43 ± 9.5	1221.6 ± 1.5	1.16 ± 0.04
298.15 K, x1 = 0.8005	878 ± 0.24	252.03 ± 9.8	1241.3 ± 1.5	1.48 ± 0.04
298.15 K, x1 = 0.8985	899.14 ± 0.23	259.73 ± 10	1260 ± 1.5	1.9 ± 0.04
298.15 K, x1 = 1	920.04 ± 0.23	267.69 ± 10	1278.4 ± 1.5	2.6 ± 0.05
318.15 K, x1 = 0.1043	672.12 ± 0.26	209.13 ± 8.1	1012.6 ± 1.5	0.34 ± 0.04
318.15 K, x1 = 0.2069	704.78 ± 0.25	216.45 ± 8.4	1035.9 ± 1.5	0.38 ± 0.04
318.15 K, x1 = 0.2965	731.74 ± 0.25	223.08 ± 8.6	1055.9 ± 1.5	0.43 ± 0.04
318.15 K, x1 = 0.4005	761.37 ± 0.25	230.81 ± 8.9	1078.8 ± 1.5	0.51 ± 0.04
318.15 K, x1 = 0.4991	787.91 ± 0.24	238.36 ± 9.2	1100.2 ± 1.5	0.6 ± 0.04
318.15 K, x1 = 0.5999	813.62 ± 0.24	246.29 ± 9.5	1121.5 ± 1.5	0.71 ± 0.04
318.15 K, x1 = 0.6995	837.67 ± 0.24	254.22 ± 9.8	1142.2 ± 1.5	0.86 ± 0.04
318.15 K, x1 = 0.8005	860.63 ± 0.24	262.24 ± 10	1162.8 ± 1.5	1.06 ± 0.04
318.15 K, x1 = 0.8985	881.86 ± 0.23	270.35 ± 10	1182.4 ± 1.5	1.32 ± 0.04
318.15 K, x1 = 1	902.84 ± 0.23	278.65 ± 11	1201 ± 1.5	1.73 ± 0.04
338.15 K, x1 = 0.1043	653.14 ± 0.26	216.81 ± 8.4	926.7 ± 1.5	0.3 ± 0.04
338.15 K, x1 = 0.2069	685.99 ± 0.25	224.63 ± 8.7	952.68 ± 1.5	0.34 ± 0.04
338.15 K, x1 = 0.2965	713.31 ± 0.25	231.59 ± 9	974.13 ± 1.5	0.38 ± 0.04
338.15 K, x1 = 0.4005	743.17 ± 0.25	239.8 ± 9.3	998.9 ± 1.5	0.43 ± 0.04
338.15 K, x1 = 0.4991	769.91 ± 0.24	247.71 ± 9.6	1021.5 ± 1.5	0.49 ± 0.04
338.15 K, x1 = 0.5999	795.8 ± 0.24	256.09 ± 9.9	1044.1 ± 1.5	0.57 ± 0.04
338.15 K, x1 = 0.6995	819.99 ± 0.24	264.46 ± 10	1065.7 ± 1.5	0.68 ± 0.04
338.15 K, x1 = 0.8005	843.1 ± 0.24	272.99 ± 11	1087 ± 1.5	0.82 ± 0.04
338.15 K, x1 = 0.8985	864.46 ± 0.24	281.61 ± 11	1107.2 ± 1.5	0.99 ± 0.04
338.15 K, x1 = 1	885.57 ± 0.23	290.33 ± 11	1126.7 ± 1.5	1.27 ± 0.04

CC12CCC(CC1)C(C)(C)O2 [1,3,3-trimethyl-2-oxabicyclo[2.2.2]octane] + CCCCCCCC
Settings	mass density, [1] [kg/m3]	molar heat capacity at constant pressure, [2] [J/K/mol]	speed of sound, [1] [m/s]	viscosity, [1] [mPa·s]
278.15 K, x1 = 0.1046	738.47 ± 0.17	246.2 ± 9.5	1263.8 ± 1.3	0.77 ± 0.04
278.15 K, x1 = 0.199	759.76 ± 0.17	246.45 ± 9.5	1270.8 ± 1.3	0.87 ± 0.04
278.15 K, x1 = 0.2987	782.16 ± 0.17	246.89 ± 9.6	1279.1 ± 1.3	1 ± 0.04
278.15 K, x1 = 0.4008	805.03 ± 0.18	247.59 ± 9.6	1288.5 ± 1.4	1.17 ± 0.04
278.15 K, x1 = 0.4955	826.13 ± 0.18	248.46 ± 9.6	1297.8 ± 1.4	1.36 ± 0.04
278.15 K, x1 = 0.5939	847.98 ± 0.19	249.62 ± 9.7	1308.4 ± 1.4	1.62 ± 0.04
278.15 K, x1 = 0.6971	870.82 ± 0.19	250.95 ± 9.7	1320.1 ± 1.4	1.99 ± 0.04
278.15 K, x1 = 0.7985	893.16 ± 0.2	252.64 ± 9.8	1332.5 ± 1.5	2.49 ± 0.05
278.15 K, x1 = 0.8939	914.06 ± 0.22	254.3 ± 9.8	1344.9 ± 1.5	3.14 ± 0.05
278.15 K, x1 = 1	937.25 ± 0.23	256.14 ± 9.9	1359.6 ± 1.6	4.21 ± 0.05
298.15 K, x1 = 0.1046	722.35 ± 0.18	254.53 ± 9.9	1180.9 ± 1.3	0.6 ± 0.04
298.15 K, x1 = 0.199	743.56 ± 0.18	255.32 ± 9.9	1188.5 ± 1.3	0.66 ± 0.04
298.15 K, x1 = 0.2987	765.86 ± 0.18	256.22 ± 9.9	1197.5 ± 1.3	0.75 ± 0.04
298.15 K, x1 = 0.4008	788.62 ± 0.18	257.36 ± 10	1207.3 ± 1.4	0.86 ± 0.04
298.15 K, x1 = 0.4955	809.62 ± 0.18	258.59 ± 10	1216.9 ± 1.4	0.98 ± 0.04
298.15 K, x1 = 0.5939	831.35 ± 0.19	260.07 ± 10	1227.7 ± 1.4	1.14 ± 0.04
298.15 K, x1 = 0.6971	854.05 ± 0.2	261.75 ± 10	1239.8 ± 1.4	1.37 ± 0.04
298.15 K, x1 = 0.7985	876.24 ± 0.21	263.66 ± 10	1252.4 ± 1.5	1.65 ± 0.04
298.15 K, x1 = 0.8939	897.03 ± 0.22	265.57 ± 10	1264.9 ± 1.5	2.02 ± 0.04
298.15 K, x1 = 1	920.04 ± 0.23	267.69 ± 10	1278.4 ± 1.5	2.6 ± 0.05
318.15 K, x1 = 0.1046	705.93 ± 0.18	263.19 ± 10	1099.7 ± 1.3	0.48 ± 0.04
318.15 K, x1 = 0.199	727.08 ± 0.18	264.31 ± 10	1108.1 ± 1.3	0.53 ± 0.04
318.15 K, x1 = 0.2987	749.32 ± 0.18	265.53 ± 10	1117.9 ± 1.3	0.58 ± 0.04
318.15 K, x1 = 0.4008	772.01 ± 0.18	267 ± 10	1128.3 ± 1.3	0.66 ± 0.04
318.15 K, x1 = 0.4955	792.93 ± 0.19	268.51 ± 10	1138.3 ± 1.4	0.74 ± 0.04
318.15 K, x1 = 0.5939	814.56 ± 0.19	270.26 ± 10	1149.5 ± 1.4	0.85 ± 0.04
318.15 K, x1 = 0.6971	837.17 ± 0.2	272.14 ± 11	1162.3 ± 1.4	1 ± 0.04
318.15 K, x1 = 0.7985	859.26 ± 0.21	274.24 ± 11	1175.6 ± 1.5	1.18 ± 0.04
318.15 K, x1 = 0.8939	879.92 ± 0.22	276.39 ± 11	1188.3 ± 1.5	1.4 ± 0.04
318.15 K, x1 = 1	902.84 ± 0.23	278.65 ± 11	1201 ± 1.5	1.73 ± 0.04
338.15 K, x1 = 0.1046	689.16 ± 0.19	272.35 ± 11	1020.2 ± 1.2	0.41 ± 0.04
338.15 K, x1 = 0.199	710.27 ± 0.19	273.81 ± 11	1029.6 ± 1.3	0.44 ± 0.04
338.15 K, x1 = 0.2987	732.46 ± 0.19	275.37 ± 11	1040.3 ± 1.3	0.48 ± 0.04
338.15 K, x1 = 0.4008	755.1 ± 0.19	277.18 ± 11	1051.6 ± 1.3	0.54 ± 0.04
338.15 K, x1 = 0.4955	775.96 ± 0.19	278.93 ± 11	1062.3 ± 1.4	0.6 ± 0.04
338.15 K, x1 = 0.5939	797.55 ± 0.19	280.96 ± 11	1073.8 ± 1.4	0.68 ± 0.04
338.15 K, x1 = 0.6971	820.1 ± 0.2	283.13 ± 11	1087.4 ± 1.4	0.78 ± 0.04
338.15 K, x1 = 0.7985	842.12 ± 0.21	285.45 ± 11	1101.4 ± 1.4	0.9 ± 0.04
338.15 K, x1 = 0.8939	862.72 ± 0.22	287.81 ± 11	1114.5 ± 1.5	1.05 ± 0.04
338.15 K, x1 = 1	885.57 ± 0.23	290.33 ± 11	1126.7 ± 1.5	1.27 ± 0.04
